Columns and labels:
[1] = tested on: Brassica napus (winter rape, BRSNW); experiment: Greenhouse postemergence trial BRSNW; type: in vivo; details: Brassica napus, post-emergence, read-out: % visual injury Obs
Method: (§1) Seeds of the desired test plant species were planted in a 90:10% v/v (volume/volume) mixture of PRO-MIX® BX (Premier Tech Horticulture, Quakertown, PA, USA) and PROFILE® GREENS GRADE™ (Profile Products LLC, Buffalo Grove, IL, USA) planting mixture, which typically has a pH of 5.2 to 6.2 and an organic matter content of at least 50 percent, in plastic pots with a surface area of 103.2 square centimeters (cm^2). […] The plants were grown for 7-36 days (d) in a greenhouse with an approximate 14-hour (h) photo-period which was maintained at about 23° C. during the day and 22° C. during the night. Nutrients and water were added on a regular basis and supplemental lighting was provided with overhead metal halide 1000-Watt lamps as necessary. The plants were employed for testing when they reached the second or third true leaf stage.
(§2) Emulsifiable concentrates of each of each pyridine carboxylate herbicide (Compound A or Compound B) were prepared at 100 grams acid equivalent per liter (g ae/L). The emulsifiable concentrates also included a safener, cloquintocet-mexyl, at 120 grams active ingredient per liter (g ai/L), unless otherwise noted below. An aliquot of each emulsifiable concentrate was placed in a 25 mL glass vial and diluted with an aqueous mixture of 1.25% (v/v) ACTIROB® B esterified rapeseed oil (Bayer Crop Science, Research Triangle Park, NC, USA) or MSO® Concentrate with LECI-TECH® methylated soybean oil (Loveland Products, Loveland, CO, USA) to obtain concentrated stock solutions at the highest application rate for each herbicide, based upon a 12 milliliter (mL) application volume at a rate of 187 liters per hectare (L/ha). The concentrated stock solutions were further diluted with an aqueous mixture of 1.25% v/v ACTIROB® B or MSO® Concentrate with LECI-TECH® to obtain stock solutions at reduced application rates for each herbicide. Spray solutions of the herbicide combinations (Compound A or Compound B plus synthetic auxin herbicide or auxin transport inhibitor) were prepared by adding weighed amounts or aliquots of the synthetic auxin herbicide or auxin transport inhibitor to the stock solutions of Compound A or Compound B to form 12-mL spray solutions in two-way combinations.
(§3) The spray solutions were applied to the plant material with an overhead Mandel track sprayer equipped with 8002E nozzles calibrated to deliver 187 L/ha over an application area of 0.503 square meters (m^2) at a spray height of 18 inches (43 centimeters (cm)) above the average plant canopy. Control plants were sprayed in the same manner with the solvent blank. All pyridine carboxylate herbicide (component a) application rates are given as “g ae/ha” and all synthetic auxin herbicide or auxin transport inhibitor (component b) application rates are given as “g ai/ha.”
(§4) The treated plants and control plants were placed in a greenhouse as described above and watered by sub-irrigation to prevent wash-off of the test compounds. After 20-22 d, the condition of the test plants as compared with that of the control plants was determined visually and scored on a scale of 0 to 100 percent where 0 corresponds to no injury and 100 corresponds to complete kill.

[2] = tested on: Avena fatua (wild oat, AVEFA); experiment: Greenhouse postemergence trial AVEFA; type: in vivo; details: AVEFA; 140 g/ha alone
Method: as §1
(§5) Emulsifiable concentrates of each of each pyridine carboxylate herbicide (Compound A or Compound B) were prepared at 100 grams acid equivalent per liter (g ae/L). The emulsifiable concentrates also included a safener, cloquintocet-mexyl, at 120 grams active ingredient per liter (g ai/L), unless otherwise noted below. An aliquot of each emulsifiable concentrate was placed in a 25 mL glass vial and diluted with an aqueous mixture of 1.25% (v/v) ACTIROB® B esterified rapeseed oil (Bayer Crop Science, Research Triangle Park, NC, USA) or MSO® Concentrate with LECI-TECH® methylated soybean oil (Loveland Products, Loveland, CO, USA) to obtain concentrated stock solutions at the highest application rate for each herbicide, based upon a 12 milliliter (mL) application volume at a rate of 187 liters per hectare (L/ha). The concentrated stock solutions were further diluted with an aqueous mixture of 1.25% v/v ACTIROB® B or MSO® Concentrate with LECI-TECH® to obtain stock solutions at reduced application rates for each herbicide. Spray solutions of the herbicide combinations (Compound A or Compound B plus synthetic auxin herbicide or auxin transport inhibitor) were prepared by adding weighed amounts or aliquots of the synthetic auxin herbicide or auxin transport inhibitor to the stock solutions of Compound A or Compound B to form 12-mL spray solutions in two-way combinations. […]
as §4

[3] = tested on: Glycine max (volunteer soybean, GLXMA); experiment: Greenhouse postemergence trial GLXMA; type: in vivo; details: GLXMA; 140 g/ha alone
Method: as §1, §2, §3, §4

[4] = tested on: Digitaria sanguinalis (large crabgrass, DIGSA); experiment: Greenhouse postemergence trial DIGSA; type: in vivo; details: for % visual injury, Obs: DIGSA, 140 g/ha alone
Method: as §1, §2, §3, §4

[5] = tested on: Viola tricolor (wild pansy, VIOTR); experiment: Greenhouse postemergence trial VIOTR; details: for % visual injury, Obs: VIOTR, 140 g/ha alone;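 for all read-outs here: greenhouse plants sprayed at second to third true leaf stage, injury rated visually after 20-22 d against solvent-blank sprayed controls, 0 meaning no injury and 100 complete kill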
[6] = tested on: Leptochloa chinensis (Chinese sprangletop, LEFCH); experiment: Greenhouse postemergence trial LEFCH; type: in vivo; details: LEFCH; 140 g/ha alone
Method: as §1, §5, §4

[7] = tested on: Kochia scoparia (kochia, KCHSC); experiment: Greenhouse postemergence trial KCHSC; type: in vivo; details: for % visual injury, Obs: 140 g/ha alone
[8] = tested on: Polygonum convolvulus (wild buckwheat, POLCO); experiment: Greenhouse postemergence trial POLCO; type: in vivo; details: for % visual injury, Obs: 140 g/ha alone
Method: as §1, §2, §3, §4

[9] = tested on: Rumex obtusifolius (broad-leaf dock, RUMOB); experiment: Greenhouse postemergence trial RUMOB; type: in vivo; details: for % visual injury, Obs: RUMOB, 140 g/ha alone
Method: as §1, §2, §3, §4

[10] = tested on: Helianthus annuus (common sunflower, HELAN); experiment: Greenhouse postemergence trial HELAN; type: in vivo; details: HELAN; 140 g/ha alone
[11] = tested on: Cirsium arvense (Canadian thistle, CIRAR); experiment: Greenhouse postemergence trial CIRAR; type: in vivo; details: for % visual injury, Obs: 140 g/ha alone
[12] = tested on: Alopecurus myosuroides (blackgrass, ALOMY); experiment: Greenhouse postemergence trial ALOMY; type: in vivo; details: ALOMY; 140 g/ha alone
Method: as §1, §5, §4

[13] = tested on: Ipomoea hederacea (ivyleaf morningglory, IPOHE); experiment: Greenhouse postemergence trial IPOHE; type: in vivo; details: IPOHE; 140 g/ha alone
Method: as §1, §2, §3, §4

[14] = tested on: Setaria faberi (giant foxtail, SETFA); experiment: Greenhouse postemergence trial SETFA; type: in vivo; details: for % visual injury, Obs: SETFA, 140 g/ha alone
Method: as §1, §2, §3, §4

[15] = tested on: Stellaria media (chickweed, STEME); experiment: Greenhouse postemergence trial STEME; type: in vivo; details: for % visual injury, Obs: 140 g/ha alone
[16] = tested on: Abutilon theophrasti (velvetleaf, ABUTH); experiment: Greenhouse postemergence trial ABUTH; type: in vivo; details: for % visual injury, Obs: ABUTH, 140 g/ha alone
Method: as §1, §2, §3, §4

[17] = tested on: Echinochloa crus-galli (barnyard grass, ECHCG); experiment: Greenhouse postemergence trial ECHCG; type: in vivo; details: for % visual injury, Obs: ECHCG, 140 g/ha alone
Method: as §1, §2, §3, §4

[18] = tested on: Cyperus esculentus (nutsedge, CYPES); experiment: Greenhouse postemergence trial CYPES; type: in vivo; details: CYPES; 140 g/ha alone
Method: as §1, §5, §4

[19] = tested on: Sorghum vulgare (grain sorghum, SORVU); experiment: Greenhouse postemergence trial SORVU; type: in vivo; details: SORVU; 140 g/ha alone
Method: as §1, §5, §4

[20] = tested on: Lolium multiflorum (Italian ryegrass, LOLMU); experiment: Greenhouse postemergence trial LOLMU; type: in vivo; details: for % visual injury, Obs: LOLMU, 140 g/ha alone
Method: as §1, §2, §3, §4

[21] = tested on: Oryza sativa (common rice, ORYSA); experiment: Greenhouse postemergence trial ORYSA; type: in vivo; details: diflufenzopyr 10 g/ha
Method: as §1
Emulsifiable concentrates of each of each pyridine carboxylate herbicide (Compound A or Compound B) were prepared at 100 grams acid equivalent per liter (g ae/L). […]
as §4

[22] = tested on: Brassica napus (spring rape, BRSNN); experiment: Greenhouse postemergence trial BRSNN; type: in vivo; details: diflufenzopyr 10 g/ha
Method: (§6) The plants were grown for 7-36 days (d) in a greenhouse with an approximate 14-hour (h) photo-period which was maintained at about 23° C. during the day and 22° C. during the night. Nutrients and water were added on a regular basis and supplemental lighting was provided with overhead metal halide 1000-Watt lamps as necessary. The plants were employed for testing when they reached the second or third true leaf stage.
(§7) The emulsifiable concentrates also included a safener, cloquintocet-mexyl, at 120 grams active ingredient per liter (g ai/L), unless otherwise noted below.
(§8) Control plants were sprayed in the same manner with the solvent blank. All pyridine carboxylate herbicide (component a) application rates are given as “g ae/ha” and all synthetic auxin herbicide or auxin transport inhibitor (component b) application rates are given as “g ai/ha.”
as §4

[23] = tested on: Capsella bursa-pastoris (shepherd's purse, CAPBP); experiment: Greenhouse postemergence trial CAPBP; type: in vivo
[24] = tested on: Lamium purpureum (purple deadnettle, LAMPU); experiment: Greenhouse postemergence trial LAMPU
[25] = tested on: Papaver rhoeas (corn poppy, PAPRH); experiment: Greenhouse postemergence trial PAPRH; type: in vivo
[26] = tested on: Matricaria chamomilla (wild chamomile, MATCH); experiment: Greenhouse postemergence trial MATCH; type: in vivo; details: Matricaria chamomilla, post-emergence; MATCH; Halauxifen-methyl 3 g/ha; read-out: % visual injury Obs;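 note: greenhouse plants sprayed at second to third true leaf stage, injury rated by eye 20-22 d later versus solvent-blank controls on 0–100 scale, 0 no injury, 100 complete kill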
Method: as §6, §7, §8, §4

[27] = tested on: Matricaria discoidea (pineapple weed, MATMT); experiment: Greenhouse postemergence trial MATMT; type: in vivo
Method: as §1, §2, §3, §4

[28] = tested on: Hordeum vulgare (winter barley, HORVW); experiment: Greenhouse postemergence crop phytotoxicity HORVW; type: in vivo
Method: as §1, §2, §3, §4

[29] = tested on: Galium aparine (cleavers, GALAP); experiment: Greenhouse postemergence trial GALAP; type: in vivo; details: c1-3 Compound A 7.5/10/15; c4 Halauxifen-methyl 6; c5-7 A 7.5/10/15 + Halauxifen-methyl 6 g/ha
Method: as §1, §2, §3, §4

[30] = tested on: Hordeum vulgare (spring barley, HORVS); type: in vivo
[31] = tested on: Veronica hederifolia (ivyleaf speedwell, VERHE); experiment: Greenhouse postemergence trial VERHE; type: in vivo
Method: as §1, §2, §3, §4

[32] = tested on: Papaver rhoeas (corn poppy), herbicide-resistant (PAPRH-R); experiment: Greenhouse postemergence trial PAPRH-R; type: in vivo
[33] = tested on: Cyanus segetum (cornflower, CENCY); experiment: Greenhouse postemergence trial CENCY; type: in vivo
[34] = tested on: Veronica persica (bird's-eye speedwell, VERPE); experiment: Greenhouse postemergence trial VERPE; type: in vivo
[35] = tested on: Sinapis arvensis (wild mustard, SINAR); experiment: Greenhouse postemergence trial SINAR; type: in vivo; details: Mutarda arvensis, post-emergence; SINAR; Halauxifen-methyl 3 g/ha; read-out: % visual injury Obs
Method: as §6, §7, §8, §4

[36] = tested on: Viola arvensis (field violet, VIOAR); experiment: Greenhouse postemergence trial VIOAR; type: in vivo
Method: as §1, §2, §3, §4

[37] = tested on: Triticum aestivum (winter wheat, TRZAW); experiment: Greenhouse postemergence crop phytotoxicity TRZAW; type: in vivo
[38] = tested on: Triticum aestivum (spring wheat, TRZAS); type: in vivo
Method: as §1, §2, §3, §4

[39] = tested on: Anthemis arvensis (field chamomile, ANTAR); experiment: Greenhouse postemergence trial ANTAR; type: in vivo
Method: as §1, §2, §3, §4

[40] = tested on: Salsola kali (Russian thistle, SASKR); experiment: Greenhouse postemergence trial SASKR; type: in vivo; details: Salsola kali, post-emergence; SASKR; Halauxifen-methyl 3 g/ha; read-out: % visual injury Obs;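 note: greenhouse plants sprayed at second or third true leaf stage, injury rated by eye after 20-22 d against solvent-blank controls, 0 meaning no injury, 100 complete kill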
[41] = tested on: Matricaria inodora (false chamomile, MATIN); experiment: Greenhouse postemergence trial MATIN; type: in vivo
[42] = c1-3 Compound A 7.5/10/15, c4 Halauxifen-methyl 6, c5-7 A 7.5/10/15 + Halauxifen-methyl 6 g/ha

O=C(O)c1cc(I)cc(I)c1I [2,3,5-TIBA]
40%: % visual injury, Obs [3]
0%: plant injury at 140 g/ha [1] | % visual injury, Obs [2] | % visual injury, Obs [4] | % visual injury, Obs [5] | % visual injury, Obs [6] | % visual injury, Obs ([7]; KCHSC) | % visual injury, Obs ([8]; POLCO) | % visual injury, Obs [9] | % visual injury, Obs [10] | % visual injury, Obs ([11]; CIRAR) | % visual injury, Obs [12] | % visual injury, Obs [13] | % visual injury, Obs [14] | % visual injury, Obs ([15]; STEME) | % visual injury, Obs [16] | % visual injury, Obs [17] | % visual injury, Obs [18] | % visual injury, Obs [19] | % visual injury, Obs [20]

C/C(=N\NC(=O)Nc1cc(F)cc(F)c1)c1ncccc1C(=O)O [Diflufenzopyr]
70%: BRSNN Obs (% visual injury) [22]
5%: POLCO Obs (% visual injury) ([8]; diflufenzopyr 10 g/ha)
20%: SETFA Obs (% visual injury) ([14]; diflufenzopyr 10 g/ha)
38%: ABUTH Obs (% visual injury) ([16]; diflufenzopyr 10 g/ha)
10%: KCHSC Obs (% visual injury) ([7]; diflufenzopyr 10 g/ha) | CIRAR Obs (% visual injury) ([11]; diflufenzopyr 10 g/ha)
0%: DIGSA Obs (% visual injury) ([4]; diflufenzopyr 10 g/ha) | ECHCG Obs (% visual injury) ([17]; diflufenzopyr 10 g/ha)
8%: ORYSA Obs (% visual injury) [21] | VIOTR Obs (% visual injury) ([5]; diflufenzopyr 10 g/ha) | RUMOB Obs (% visual injury) ([9]; diflufenzopyr 10 g/ha) | LOLMU Obs (% visual injury) ([20]; diflufenzopyr 10 g/ha)

COC(=O)c1nc(-c2ccc(Cl)c(OC)c2F)cc(N)c1Cl [Halauxifen-methyl, halauxifen-methyl, reference compound]
85%: % visual injury [24, 42]
30%: plant injury at 3 g/ha ([1]; BRSNW, Halauxifen-methyl 3 g/ha) | pest or weed control at 3 g/ha ([15]; Stellaria media, post-emergence, STEME, Halauxifen-methyl 3 g/ha, read-out: % visual injury Obs)
0%: pest or weed control at 3 g/ha ([27]; Matricaria discoidea, post-emergence, MATMT, Halauxifen-methyl 3 g/ha, read-out: % visual injury Obs) | % visual injury Obs ([28]; HORVW, Halauxifen-methyl 3 g/ha) | % visual injury (crop phytotoxicity) [28, 42] | % visual injury Obs ([30]; HORVS, Halauxifen-methyl 3 g/ha) | % visual injury (crop phytotoxicity) [30, 42] | % visual injury Obs ([37]; TRZAW, Halauxifen-methyl 3 g/ha) | % visual injury (crop phytotoxicity) [37, 42] | % visual injury Obs ([38]; TRZAS, Halauxifen-methyl 3 g/ha) | % visual injury (crop phytotoxicity) [38, 42] | pest or weed control at 3 g/ha ([41]; Tripleurospermum inodorum, post-emergence, MATIN, Halauxifen-methyl 3 g/ha, read-out: % visual injury Obs)
97%: pest or weed control at 3 g/ha ([24]; Lamium purpureum, post-emergence, read-out: % visual injury Obs) | % visual injury [33, 42]
80%: pest or weed control at 3 g/ha ([8]; Fallopia convolvulus, post-emergence, POLCO, Halauxifen-methyl 3 g/ha, read-out: % visual injury Obs)
20%: pest or weed control at 3 g/ha ([34]; Veronica persica, post-emergence, VERVE, Halauxifen-methyl 3 g/ha, read-out: % visual injury Obs)
10%: pest or weed control at 3 g/ha [26] | % visual injury [5, 42] | pest or weed control at 3 g/ha ([31]; Veronica hederifolia, post-emergence, VERHE, Halauxifen-methyl 3 g/ha, read-out: % visual injury Obs) | % visual injury [31, 42] | % visual injury [34, 42] | pest or weed control at 3 g/ha ([36]; Viola arvensis, post-emergence, VIOAR, Halauxifen-methyl 3 g/ha, read-out: % visual injury Obs) | % visual injury [41, 42]
75%: pest or weed control at 3 g/ha ([23]; Capsella bursa-pastoris, post-emergence, CAPBP, Halauxifen-methyl 3 g/ha, read-out: % visual injury Obs)
50%: pest or weed control at 3 g/ha ([7]; Bassia scoparia, post-emergence, KCHSC, Halauxifen-methyl 3 g/ha, read-out: % visual injury Obs) | pest or weed control at 3 g/ha ([39]; Anthemis arvensis, post-emergence, ANTAR, Halauxifen-methyl 3 g/ha, read-out: % visual injury Obs) | pest or weed control at 3 g/ha [40]
70%: % visual injury [23, 42] | pest or weed control at 3 g/ha ([25]; Papaver rhoeas, post-emergence, PAPRH, Halauxifen-methyl 3 g/ha, read-out: % visual injury Obs) | % visual injury [25, 42] | pest or weed control at 3 g/ha [35]
95%: % visual injury [29]
60%: pest or weed control at 3 g/ha ([5]; Viola tricolor, post-emergence, read-out: % visual injury Obs) | % visual injury [32, 42]
65%: % visual injury [27, 42] | pest or weed control at 3 g/ha ([11]; Cirsium arvense, post-emergence, CIRAR, Halauxifen-methyl 3 g/ha, read-out: % visual injury Obs) | pest or weed control at 3 g/ha ([32]; Papaver rhoeas, post-emergence, PAPRH-R, Halauxifen-methyl 3 g/ha, read-out: % visual injury Obs) | % visual injury [15, 42]
40%: % visual injury [39, 42]
5%: % visual injury [36, 42]
90%: pest or weed control at 3 g/ha ([33]; Centaurea cyanus, post-emergence, CENCY, Halauxifen-methyl 3 g/ha, read-out: % visual injury Obs)

O=C(O)c1ccccc1C(=O)Nc1cccc2ccccc12 [Naptalam]
35%: % visual injury, Obs [18]
13%: % visual injury, Obs [3]
0%: plant injury at 140 g/ha [1] | % visual injury, Obs [2] | % visual injury, Obs [4] | % visual injury, Obs [5] | % visual injury, Obs [6] | % visual injury, Obs ([7]; KCHSC) | % visual injury, Obs ([8]; POLCO) | % visual injury, Obs [9] | % visual injury, Obs [10] | % visual injury, Obs ([11]; CIRAR) | % visual injury, Obs [12] | % visual injury, Obs [13] | % visual injury, Obs [14] | % visual injury, Obs ([15]; STEME) | % visual injury, Obs [16] | % visual injury, Obs [17] | % visual injury, Obs [19] | % visual injury, Obs [20]
